Results published in patent US20230330243A1, “COMBINATION OF ANTIBODY-DRUG CONJUGATE AND ATR INHIBITOR” (Daiichi Sankyo Company, Limited, priority 2020, published 2023).
Structures can show the parent of a compound that is named as a salt.

Legend:
[1] = system: KPL4; assay: Nuclear cell count growth inhibition / synergy and IF biomarkers, 4 to 8 days (Example 4); type: cell-based
Method: (§1) Cells grown in their respective conditions were plated in 96-well plates at optimal density to allow linear proliferation for the duration of the assay (4 to 8 days; duration of treatment is dependent on the growth rate of each cell line). Immediately after plating, the cells were dosed with the indicated compounds for a total volume of 200 µL/well and placed in the incubator. Combinations were conducted as a 6 × 8 concentration response matrix for each combination. At the endpoint, the cells were fixed in 2% PFA for 20 minutes at room temperature. In order to obtain the number of cells at the start of treatment, one additional plate was used for each experiment and fixed after cells attached. The cells were then permeabilised in 0.5% Triton-X100 in PBS for 10 minutes. After a PBS wash, the cells were blocked in 5% FBS in PBS 1h at RT and incubated with primary antibodies in 5% FBS + 0.05% triton overnight at 4° C. After 3 washes in PBS cells were incubated with secondary antibodies in 5% FBS + 0.05% triton with Hoechst33258 for 1h at room temperature. After 3 washes in PBS, the cells were scanned with a Cellinsight instrument with a 10× objective and 9 fields/well. Images were analysed using Columbus for cell count based on nuclear Hoechst staining and nuclear intensity of other biomarkers investigated. The total cell count/well was used to calculate the relative growth in each well compared to solvent control. […] The mean/well of the sum of the nuclear intensity of the IF biomarkers was also expressed relative to solvent control.

[2] = system: MDA-MB-468; assay: as above; type: cell-based
Method: as §1

[3] = system: ATR pathway in KPL4 (breast carcinoma) cells; assay: Antibody blots of ATR signaling (Example 6); type: cell-based
Method: (§2) Gastric cancer NCI-N87 and breast carcinoma KPL4 cell lines were cultured in RPMI 1640 supplemented with 10 % FCS in a humidified incubator at 37° C. with 5% CO2. Cells were plated in 6-well plates at optimal density to allow linear proliferation for the duration of the assay. […] 7 h, 24 h or 48 h after dosing, whole-cell extracts were obtained by lysis in 50 mM Tris-HC1 pH 7.5, 2% SDS containing protease and phosphatase inhibitors. Lysates were boiled for 5 minutes at 95° C. Protein concentration was measured using a Nanodrop at […] and 50 µg of lysate were loaded in 4-12% Bis Tris gels. Proteins were transferred using iblot2. Primary antibodies (see Table 7) were incubated overnight at 4° C. in 3% milk TBS-tween 0.05% and HRP-conjugated secondary antibodies for 1h at room temperature. Blots were imaged using a G-box.

[4] = system: ATR pathway in NCI-N87 (gastric cancer) cells; assay: Antibody blots of ATR signaling (Example 6); type: cell-based
Method: as §2

[5] = system: NCI-N87 tumors implanted subcutaneously; assay: NCI-N87 xenograft tumor growth inhibition (Example 5); type: in vivo, Female Nude mice; conditions: AZD6738 25 mg/kg PO BID (14 d-on/14-d off); day 40 post treatment
[6] = system: NCI-N87; assay: Nuclear cell count growth inhibition, 4 to 8 days (Example 4); type: cell-based; conditions: Homo sapiens; NCI-N87, Gastric, HER2 High; monotherapy
Method: (§3) Cells grown in their respective conditions were plated in 96-well plates at optimal density to allow linear proliferation for the duration of the assay (4 to 8 days; duration of treatment is dependent on the growth rate of each cell line). Immediately after plating, the cells were dosed with the indicated compounds for a total volume of 200 µL/well and placed in the incubator. Combinations were conducted as a 6 × 8 concentration response matrix for each combination. At the endpoint, the cells were fixed in 2% PFA for 20 minutes at room temperature. In order to obtain the number of cells at the start of treatment, one additional plate was used for each experiment and fixed after cells attached. The cells were then permeabilised in 0.5% Triton-X100 in PBS for 10 minutes. After a PBS wash, the cells were blocked in 5% FBS in PBS 1h at RT and incubated with primary antibodies in 5% FBS + 0.05% triton overnight at 4° C. After 3 washes in PBS cells were incubated with secondary antibodies in 5% FBS + 0.05% triton with Hoechst33258 for 1h at room temperature. After 3 washes in PBS, the cells were scanned with a Cellinsight instrument with a 10× objective and 9 fields/well. Images were analysed using Columbus for cell count based on nuclear Hoechst staining and nuclear intensity of other biomarkers investigated. […]

[7] = system: SK-OV-3; assay: Nuclear cell count growth inhibition / synergy, 4 to 8 days (Example 4); type: cell-based; conditions: Homo sapiens; SK-OV-3, Ovarian, HER2 Moderate; monotherapy
Method: as §3

[8] = system: JIMT-1; assay: as above; type: cell-based; conditions: Homo sapiens; JIMT-1, Breast, HER2 Expressed; monotherapy
Method: as §3

[9] = system: DU145-SLFN11 KO (CRISPR-Cas9 gene knockout of SLFN11); assay: Nuclear cell count growth inhibition, 4 to 8 days (Example 4); type: cell-based; conditions: Prostate, HER2 Low, monotherapy
Method: as §3

[10] = AZD6738 at 1 µM in combination with DS-8201 or exatecan mesylate
[11] = DS-8201 at 30 µg/mL or exatecan mesylate alone, 7 h, 24 h or 48 h

Row | SMILES | GI50 ([1]; KPL4, Breast, HER2 High, monotherapy) [nM] | GI50 ([2]; Homo sapiens, MDA-MB-468, Breast, HER2 Low, monotherapy) [nM] | Activation of pATR and pChk1 and cell cycle arrest induced by DS-8201 or exatecan mesylate ([3]; AZD6738 at 1 µM in combination) | Cell death (cCasp3) [3, 10] | DNA damage (pKap1, gH2AX) [3, 10] | Activation of pATR and pChk1 and cell cycle arrest induced by DS-8201 or exatecan mesylate ([4]; AZD6738 at 1 µM in combination) | Cell death (cCasp3) [4, 10] | DNA damage (pKap1, gH2AX) [4, 10] | Best response %TGI/regression (maximum TGI) [5] [%] | GI50 [6] [nM] | GI50 [7] [nM] | GI50 [8] [nM] | Biomarkers of ATM (KAP1 pSer824) activation and DNA strand breaks (γH2AX) ([1]; KPL4, single agent) | Combination activity with AZD6738 (in words) ([1]; high-HER2 KPL4, in combination with AZD6738, clinically relevant concentrations) | Combination activity with AZD6738 (in words) ([2]; HER2-negative MDA-MB-468, in combination with AZD6738) | ATR pathway (pATR-T1989, pChk1-S345) and cell cycle arrest (pCdc2-Y15) [3, 11] | ATR pathway (pATR-T1989, pChk1-S345) and cell cycle arrest (pCdc2-Y15) [4, 11] | GI50 [9] [nM]
1 | C[C@@H]1COCCN1c1cc(C2([S@](C)(=N)=O)CC2)nc(-c2ccnc3[nH]ccc23)n1 [AZD6738, 4-{4-[(3R)-3-methylmorpholin-4-yl]-6-[1-((R)-S-methylsulfonimidoyl)cyclopropyl]pyrimidin-2-yl}-1H-pyrrolo[2,3-b]pyridine] | > 3000 | 2070 | inhibited the activation of pATR and pChk1 and cell cycle arrest | increased cell death | exacerbating the DNA damage | inhibited the activation of pATR and pChk1 and cell cycle arrest | increased cell death | exacerbating the DNA damage | 62 | 436 | 1010 | 788 | – | – | – | – | – | –
2 | CC[C@@]1(O)C(=O)OCc2c1cc1n(c2=O)Cc2c-1nc1cc(F)c(C)c3c1c2[C@@H](N)CC3 [Exatecan mesylate, (1S,9S)-1-amino-9-ethyl-5-fluoro-1,2,3,9,12,15-hexahydro-9-hydroxy-4-methyl-10H,13H-benzo[de]pyrano[3′,4′:6,7]indolizino[1,2-b]quinolin-10,13-dione, reference compound] | – | – | – | – | – | – | – | – | – | – | – | – | induced in a concentration dependent manner | synergistic activity and cell death | still showed combination activity | induced activation of the ATR pathway | induced activation of the ATR pathway | 0.45
